Reference: patent US8450245B2, “Heterocyclic alkanol derivatives” (Bayer Intellectual Property GmbH, priority 2010, dated 2013)

How the values were obtained:
[1] = logP by HPLC on reversed-phase columns (C 18), EEC Directive 79/831 Annex V.A8; type: physicochemical; conditions: reversed-phase HPLC column (C 18); method [a]: LC-MS, acidic range, pH 2.7, 0.1% aqueous formic acid and acetonitrile, linear gradient 10% to 95% acetonitrile
Experimental: The logP values were measured in accordance with EEC Directive 79/831 Annex V.A8 by HPLC (High Performance Liquid Chromatography) using reversed-phase columns (C 18) by the following methods: [a] The LC-MS determination in the acidic range is effected at pH 2.7 with 0.1% aqueous formic acid and acetonitile (contains 0.1% formic acid) as eluents; linear gradient from 10% acetonitrile to 95% acetonitrile.

[2] = system: Alternaria solani; assay: Alternaria test (tomato)/protective; type: in vivo; conditions: young tomato plants sprayed at 500 ppm, inoculated one day after treatment, evaluation 7 days after inoculation; 100% = no infection
Experimental: Solvent: 49 parts by weight of N,N-dimethylformamide Emulsifier: 1 part by weight of alkylaryl polyglycol ether To produce an appropriate active ingredient formulation, 1 part by weight of active ingredient is mixed with the specified amounts of solvent and emulsifier, and the concentrate is diluted with water to the desired concentration. To test for protective activity, young tomato plants are sprayed with the active ingredient formulation at the stated application rate. One day after the treatment, the plants are inoculated with a spore suspension of Alternaria solani and are then left at 100% relative humidity and 22° C. for 24 h. The plants are then left at 96% relative air humidity and a temperature of 20° C. Evaluation follows 7 days after the inoculation. 0% means an efficacy which corresponds to that of the control, whereas an efficacy of 100% means that no infection is observed. In this test, the following inventive compounds, at an active ingredient concentration of 500 ppm, show an efficacy of 70% or more.

[3] = system: Sphaerotheca fisliginea; assay: Sphaerotheca test (cucumber)/protective; type: in vivo; conditions: young cucumber plants sprayed at 500 ppm, inoculated one day after treatment, evaluation 7 days after inoculation; 100% = no infection
Experimental: Solvent: 49 parts by weight of N,N-dimethylformamide
Emulsifier: 1 part by weight of alkylaryl polyglycol ether
To produce an appropriate active ingredient formulation, 1 part by weight of active ingredient is mixed with the specified amounts of solvent and emulsifier, and the concentrate is diluted with water to the desired concentration. To test for protective activity, young cucumber plants are sprayed with the formulation of active ingredient at the stated application rate. One day after the treatment, the plants are inoculated with a spore suspension of Sphaerotheca fisliginea. The plants are then placed in a greenhouse at 70% relative air humidity and a temperature of 23° C. Evaluation follows 7 days after the inoculation. 0% means an efficacy which corresponds to that of the control, whereas an efficacy of 100% means that no infection is observed. In this test, the following inventive compounds, at an active ingredient concentration of 500 ppm, show an efficacy of 70% or more.

Question: With `CC(C)(C)C(O)(COc1ccc(I)c(F)c1F)c1cncs1` (stereo not drawn) [Compound 1] as the compound, how does the chromatographic logP [1] read?
Answer: Its chromatographic logP is 3.76.

Question: What about the “Efficacy (%)” value [2] of the same compound?
Answer: The value was 100%.

Question: What about the “Efficacy (%)” value [3] of the same compound?
Answer: The value was 94%.
